“And” between values parts separate entries of the source, which are not always exact repeats. Identical values can stand only once.
Columns and labels:
[1] = test system: PDE extracts prepared from rat PRP (cAMP hydrolysis); assay: Phosphodiesterase activity in platelet extracts, hydrolysis of cAMP (HPLC); format: biochemical; details: vehicle = 100%, single replicates
Description: The effects of naringenin on PDE activity were determined using high-performance liquid chromatography (HPLC) ([Hu et al., 2011]). Briefly, PRP was pelleted by centrifugation for 10 min at 900 × g and homogenized in PBS containing 0.1% Triton X-100 using an ultrasonic homogenizer. After centrifugation at 12,000 × g for 20 min at 4°C, the supernatant was subjected to PDE activity assay.
DMSO vehicle or different concentrations naringenin were added to assay buffer (137 mM NaCl, 2.7 mM KCl, 8.8 mM Na2HPO4, 1.5 mM KH2PO4, 1 mM CaCl2, 1 mM MgCl2, pH 7,4) containing cAMP or cGMP. The reaction was initiated by adding 30 μL PDE extracts prepared from rat PRP as described above. Some extracts were boiled for 3 min to inactivate PDE before addition. After incubation for 30 min at […], the reaction was terminated by boiling the mixture for 3 min. Subsequently, the mixture was cooled on ice followed by centrifugation at 12,000 × g for 20 min at 4°C. The supernatant was subjected cAMP or cGMP assay using HPLC. PDE activity was expressed as percentages of the hydrolysis of cAMP or cGMP.

[2] = test system: P-selectin exposure on washed platelets; assay: ADP-stimulated P-selectin exposure (flow cytometry); format: cell-based, rat; details: ADP 10 μM; for P-selectin exposure: mean ± SD, n = 3, 86.06 ± 9.05% without naringenin; for P-selectin (%): single replicates
Description: Flow cytometric assays were performed as described previously ([Wang et al., 2019]). ADP-stimulated P-selectin exposure and fibrinogen binding were determined in washed platelets. […] The platelets were immediately incubated with PE-labeled CD62P or FITC-labeled fibrinogen in the dark at room temperature for 15 min. The cells were finally fixed with 1% (v/v) paraformaldehyde prior to analysis using an Accuri C6 flow cytometer (BD Biosciences, United States).

[3] = test system: Akt Thr308 phosphorylation; assay: Ex vivo immunoblotting of phospho-Akt (Thr308) in ADP-stimulated PRP of treated rats; design: species or system rat; details: for p-Akt Thr308 / t-Akt (Fold to Control) / p-Akt Thr308 / t-Akt (raw data): ex vivo, Figure 8D
Description: Male SD rats were randomly divided into 5 groups with 6 rats in each group. […] Sixty minutes after the last sample treatment, blood was drawn from the abdominal aorta of rats into the siliconized vacutainers containing 1:9 (v/v) 3.8% sodium citrate. The collected blood was centrifuged at 100 × g for 10 min at room temperature to obtain PRP. […] The platelet counts of PRP were adjusted to 4×10^8 cells/mL using PPP. PRP was incubated for 5 min at 37°C and then stimulated by ADP (5 μM). The maximum platelet aggregation rate was determined as mentioned above.
For in vitro platelet aggregation, aliquots of washed platelets were preincubated with vehicle or various concentrations of naringenin for 5 min and stimulated with ADP (10 μmol/L) under stirring at 37°C for 5 min. For ex vivo platelet aggregation, PRP was incubated at 37°C for 5 min and stimulated with ADP (5 μmol/L) under stirring at 37 °C. The platelet aggregation was terminated by adding ethylenediaminetetraacetic acid (EDTA; 10 mM). Total protein was prepared using RIPA lysis buffer and protein content was determined by bicinchoninic acid (BCA) protein assay kit. Equal amounts of platelet proteins (30 μg) were separated on 10% SDS polyacrylamide gel electrophoresis (SDS-PAGE) and then transferred to poly vinylidene difluoride (PVDF) membranes and subjected to western blot. Blots were blocked with TBS-Tween 20 containing 5% BSA and probed with primary antibodies diluted in blocking solution at 4°C overnight followed by incubation with the corresponding HRP secondary antibodies. The protein bands were visualized using enhanced chemiluminescence (ECL).
Blood was collected and PRP was obtained after the last treatment. Platelet aggregation was induced by ADP (5 μmol/L) (A). Data are expressed as means ± SD (n = 6). After ADP stimulation, platelet proteins were then extracted and analyzed by immunoblotting using PI3Kp110β antibody (B) and phospho-specific antibodies such as Akt^Ser473 (C), Akt^Thr308 (D) and ERK1/2^Thr202/Tyr204 (E). Total level of GAPDH was measured on each sample as a loading control. The blots shown are representative of three separate experiments. The relative protein expression levels were quantified by ImageJ 1.47v software. The level of relative protein expression obtained with vehicle control was taken as 1. R represents the level of relative protein expression in resting platelets. Data are expressed as means ± SD (n = 3). *p < 0.05, **p < 0.01, ***p < 0.001 compared with the vehicle control group (Con).
To further investigate the antiplatelet mechanisms of naringenin ex vivo, several signaling molecules such as PI3Kp110β, Akt and ERK were detected. After oral administration of naringenin (200, 400, and 800 mg/kg) to rats for 7 days, rat PRP was prepared and stimulated by ADP (5 μmol/L), and platelets were lysed to determine protein phosphorylation levels using western blot.

O=C1C[C@@H](c2ccc(O)cc2)Oc2cc(O)cc(O)c21 [Naringenin]
PDE activity (%) ([1]; 100 μM): 78.12% and 75.15% and 93.45% | PDE activity (%) ([1]; 200 μM): 76.39% and 84.94% and 63.29% | PDE activity (%) ([1]; 400 μM): 79.01% and 85.41% and 68.34% | PDE activity (%) ([1]; 800 μM): 43.72% and 69.43% and 76.24% | P-selectin exposure ([2]; 200 μM): 58.33 ± 7.86% | P-selectin (%) ([2]; 200 μM): 50.70% and 58.70% and 65.60% | P-selectin exposure ([2]; 400 μM): 35.12 ± 11.91% | P-selectin (%) ([2]; 400 μM): 22.54% and 46.23% and 36.58% | P-selectin exposure ([2]; 800 μM): 31.56 ± 7.26% | P-selectin (%) ([2]; 800 μM): 24.10% and 32.22% and 38.35% | p-Akt Thr308 / t-Akt (Fold to Control) ([3]; naringenin 200mg/kg): 0.5157 and 0.5526 and 0.5291 | p-Akt Thr308 / t-Akt (raw data) ([3]; naringenin 200mg/kg): 0.4340 and 0.4650 and 0.4452 | p-Akt Thr308 / t-Akt (Fold to Control) ([3]; naringenin 400mg/kg): 0.3273 and 0.3649 and 0.3395 | p-Akt Thr308 / t-Akt (raw data) ([3]; naringenin 400mg/kg): 0.2755 and 0.3071 and 0.2857 | p-Akt Thr308 / t-Akt (Fold to Control) ([3]; naringenin 800mg/kg): 0.3636 and 0.3541 and 0.3985 | p-Akt Thr308 / t-Akt (raw data) ([3]; naringenin 800mg/kg): 0.3060 and 0.2979 and 0.3354 | phosphorylation of Akt at Thr308 in rat PRP ex vivo ([3]; rats, oral 200, 400, and 800 mg/kg for 7 days, ADP 5 μmol/L): significantly suppressed
